The term IC50 denotes the concentration that inhibits the measured activity by half.

The structures appear in SMILES notation. Like-named read-outs stand apart in the source and are kept apart here.

Assay [1] addresses KRAS-WT (Homo sapiens, UniProt P01116). Kind of assay: SOS-catalyzed nucleotide exchange assay (Procedure A, TR-FRET), KRAS-WT. As to conditions: nucleotide exchange, read-out: KRAS WT GNE IC50. The format is biochemical. The source says: (§1) Procedure for SOS-Catalyzed Nucleotide Exchange Assay for KRAS-WT, G12C/D/V, G13D, HRAS, and NRAS (Procedure A)
(§2) Recombinant KRAS-G12C protein used in this assay has an additional triple mutation (C51S/C80L/C118S). Whereas KRAS-WT, G12D/V, G13D, HRAS and NRAS are in context of their WT protein sequence background. Specifically, the SOS-catalyzed nucleotide exchange assay utilizes a preformed TR-FRET complex containing a specific biotinylated RAS protein (KRAS-WT, G12C/V/D, G13D, HRAS, NRAS; described above) with Bodipy-GDP, and Terbium-streptavidin. Compounds are preincubated with this complex for 60 minutes. Subsequently, recombinant human SOS protein and unlabeled GTP are added to initiate the exchange reaction. Small molecule inhibitors stabilize the Bodipy-GDP complex whereas the untreated protein rapidly exchanges Bodipy-GDP for unlabeled GTP resulting in reduced TR-FRET signal.
(§3) To assemble the preformed TR-FRET complexes, each biotinylated RAS protein is diluted to 2 μM in an EDTA Buffer (20 mM HEPES pH 7.5, 50 mM sodium chloride, 10 mM EDTA, and 0.01% Tween) and incubated at room temperature for one hour. This mixture is then further diluted to 90 nM in an Assay Buffer (20 mM HEPES pH 7.5, 150 mM sodium chloride, 10 mM magnesium chloride, and 0.005% Tween) containing 15 nM of Terbium-Streptavidin (Invitrogen, catalog #PV3577) and 900 nM of Bodipy-GDP (Invitrogen, catalog #G22360) and incubated at room temperature for six hours. It should be noted that this preformed TR-FRET complex for each of the RAS protein were made ahead of time, aliquoted and stored at −80° C. until the day of the experiment.
(§4) Each test compound (10 mM stock in DMSO) is diluted in DMSO to make a final-10-point, 3-fold dilution and is acoustically dispensed into a 384-well assay plate (Corning, catalog #3820) using an Echo 550 (Labcyte). Each well of the assay plate receives 3 μL of a specific 3×RAS preformed TR-FRET complex and 3 μL of Assay Buffer and is incubated at room temperature for 60 minutes (preincubation time). Each well then receives 3 μL of 3×recombinant human SOS protein and GTP (Sigma, G8877) in Assay Buffer and is incubated at room temperature for 30 minutes (G13D), 60 minutes (KRAS WT/G12C/D, H/NRAS) or 90 minutes for G12V. The final reaction in each well of 9 μL consists of 3 mM GTP, specific Ras and SOS proteins in the following concentrations: KRAS-G12C/SOS=3 nM/40 nM, KRAS-WT and G12D/SOS=1 nM/40 nM, KRAS-G12V/SOS=1.25 nM/160 nM. KRAS-G13D/SOS=1.25 nM/0 nM, HRAS and NRAS=1.25 nM/40 nM.
(§5) The time-resolved fluorescence resonance energy transfer (TR-FRET) signal is measured on an Envision (PerkinElmer) plate reader: Excitation filter=340 nm; emission 1=495 nm; emission2=520 nm; dichroic mirror=D400/D505; delay time=[…]. The signal of each well is determined as the ratio of the emission at 520 nm to that at 495 nm. Percent effect of each well is determined after normalization to control wells containing DMSO (no effect) or a saturating concentration of inhibitor (max effect). The apparent effect as a function of compound concentration is fit to a four-parameter logistic equation.

The target of assay [2] is KRAS-G12D (Homo sapiens, UniProt P01116, G12D). The assay can be described thus: SOS-catalyzed nucleotide exchange assay (Procedure A, TR-FRET), KRAS-G12D. The format is biochemical. The note with it: nucleotide exchange, read-out: KRAS G12D GNE IC50.
Chain of KRAS-G12D (P01116 with tags, fused parts or gaps isoform P01116-2 G12D): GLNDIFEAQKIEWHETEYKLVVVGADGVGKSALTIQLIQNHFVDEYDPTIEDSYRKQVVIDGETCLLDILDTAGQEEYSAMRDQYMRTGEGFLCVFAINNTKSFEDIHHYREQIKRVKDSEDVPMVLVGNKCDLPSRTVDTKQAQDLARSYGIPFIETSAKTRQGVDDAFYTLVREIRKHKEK
Excerpt: as §1, §2, §3, §4, §5

Assay [3] has as its target KRAS-G12V (Homo sapiens, UniProt P01116, G12V). Kind of assay: SOS-catalyzed nucleotide exchange assay (Procedure A, TR-FRET), KRAS-G12V. As to conditions: nucleotide exchange, read-out: KRAS G12V GNE IC50. The assay is classed as biochemical.
Excerpt: as §1, §2, §3, §4, §5
A general note: In TR-FRET formats the signal depends on donor and acceptor labels being close together.

Assay [4] relates to AsPC-1 cells. Kind of assay: Cellular phospho-ERK assay, AsPC-1 cells (homozygous KRAS-G12D). The format is cell-based. The note with it: Homo sapiens, ASPC1, 2 h, read-out: AsPC1 pERK IC50. The method, then: Procedure for Cellular Phospho-ERK Assay in KRAS Wild Type and Mutant (G12D, G12V) Cell Lines
MKN-1 cells (JCRB JCRB0252) containing amplified wild-type KRAS, were cultured in growth medium that contains RPMI 1640-GlutaMAX™-I (ThermoFisher Scientific 61870) containing 10% heat inactivated fetal bovine serum (ThermoFisher Scientific 10091148), 1 mM sodium pyruvate and 10 mM HEPES. PANC08.13 cells (ATCC® CRL-2551™), containing homozygous KRAS-G12D activating mutation, were cultured in growth medium made of RPMI1640-GlutaMAX™-I (ThermoFisher Scientific 61870) containing 15% heat inactivated fetal bovine serum (ThermoFisher Scientific 10091148)). AsPC-1 cells (ATCC® CRL-1682™), containing homozygous KRAS-G12D activating mutation, were cultured in T150 flask in growth medium (RPMI medium 1640-GlutaMAX™-I (ThermoFisher Scientific 61870) containing 10% fetal bovine serum (ThermoFisher Scientific 10091148)). SW620 cells (ATCC® […]), containing homozygous KRAS-G12V activating mutation, were cultured in growth medium that contains RPMI 1640-GlutaMAX™-I (ThermoFisher Scientific 61870) containing 10% heat inactivated fetal bovine serum (ThermoFisher Scientific 10091148).
Cells for the assay were harvested in growth medium after TrypLE (ThermoFisher scientific 12604021) digestion and were seeded in a 384-well collagen coated cell culture plate (Corning 356702) at a density of 10,000-15,000 cells/20 μL/well, and incubated at 37° C., 5% CO2 overnight. The compound (with 10 mM stock concentration) dose-response titrations were prepared [30 μM final ERK detection assay concentration and 1:3 dilutions, 10-point dose response] and appropriate amounts (270 nL) of test compounds were dispensed in a 384-well intermediate plate using an Echo 550 liquid handler. 30 μL/well of RPMI medium 1640-GlutaMAX™—I was added to the intermediate plate and the contents of the intermediate plate (10 μL/well) were then transferred to the 384-well collagen coated cell culture plate, which was incubated at 37° C., 5% CO2 for 2 hours. After removal of medium from the collagen coated cell culture plate, cells were lysed in lysis buffer from Alpha SureFire® Ultra™ Multiplex p-ERK and total ERK assay kit (PerkinElmer MPSU-PTERK) containing Halt™ Protease and Phosphatase inhibitor cocktail (ThermoFisher Scientific 78446) at room temperature with constant shaking at 300 rpm for 30 minutes. The cell lysates were then transferred to an OptiPlate-384 plate (PerkinElmer 6005620), and the phosphorylation of ERK (p-ERK) and total ERK levels were detected by Alpha SureFire® Ultra™ Multiplex p-EEK kit and total ERK assay kit (PerkinElmer MPSU-PTERK) following the manufacturer's protocol. Assay plates were read on a En Vision Multimode Plate Reader (PerkinElmer), and the ratio of p-ERK vs. total ERK in each well was used as the final readout. Dose response curves were analyzed using a 4-parameter logistic model to calculate IC50 values using Spotfire software.

Chain of KRAS-WT (P01116 with tags, fused parts or gaps isoform P01116-2): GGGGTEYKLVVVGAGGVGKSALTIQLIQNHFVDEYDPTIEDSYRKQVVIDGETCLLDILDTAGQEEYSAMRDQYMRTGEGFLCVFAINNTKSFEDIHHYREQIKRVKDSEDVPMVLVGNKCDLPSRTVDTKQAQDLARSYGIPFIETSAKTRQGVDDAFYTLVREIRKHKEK
Chain of KRAS-G12V (P01116 with tags, fused parts or gaps isoform P01116-2 G12V): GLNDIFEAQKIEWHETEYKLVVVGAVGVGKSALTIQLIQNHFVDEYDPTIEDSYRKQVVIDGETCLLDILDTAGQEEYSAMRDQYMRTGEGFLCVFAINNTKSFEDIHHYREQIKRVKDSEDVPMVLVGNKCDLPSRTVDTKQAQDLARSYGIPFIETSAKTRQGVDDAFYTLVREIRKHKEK

With `F[C@H]1CN2CCC[C@@]2(COc2nc(N3CCCOCC3)c3c(n2)sc2c(-c4c(C5CC5)c(Cl)cc5[nH]ncc45)nncc23)C1` [Ex-286], the IC50 in assay [1] is 0.052 µM; in assay [2], 0.205 µM; in assay [3], 0.0503 µM; in assay [4] (KRAS-G12D, 2 hours), 1.11 µM.

Take `CN1CCC[C@@H]1COc1nc(N2CCOC[C@@](C)(O)C2)c2c(n1)sc1c(-c3c(C4CC4)c(C(F)(F)F)cc4[nH]ncc34)nccc12` [Ex-81, (6S)-4-(8-(5-cyclopropyl-6-(trifluoromethyl)-1H-indazol-4-yl)-2-(((R)-1-methylpyrrolidin-2-yl)methoxy)pyrido[4′,3′:4,5]thi-eno[2,3-d]pyrimidin-4-yl)-6-methyl-1,4-oxazepan-6-ol]: the IC50 in assay [1] was 0.164 µM; in assay [2], 0.0856 µM; in assay [3], 0.0862 µM; in assay [4] (KRAS-G12D, 2 hours) it was 1.11 µM.

Turning to `CO[C@]12CC[C@H]1CN(C[C@@]1(COc3nc(N4CCOC[C@@](C)(O)C4)c4c(n3)sc3c(-c5c(C6(F)CC6)c(Cl)cc6[nH]ncc56)nccc34)CC1(F)F)C2` [Ex-260, (6S)-4-(8-(6-chloro-5-(1-fluorocyclopropyl)-1H-indazol-4-yl)-2-(((R)-2,2-difluoro-1-(((1R,5S)-1-methoxy-3-azabicyclo[3.2.0]heptan-3-yl)methyl)cyclopropyl)metho-xy)pyrido[4′,3′:4,5]thieno[2,3-d]pyrimidin-4-yl)-6-methyl-1,4-oxazepan-6-ol], the IC50 in assay [1] was 0.486 µM; in assay [2] it was 0.0416 µM; in assay [3] it was 0.185 µM; in assay [4] (2 hours compound incubation), 1.21 µM.

Take `C[C@@H]1CN(C[C@@]2(COc3nc(N4CCOC[C@@](C)(O)C4)c4c(n3)sc3c(-c5c(C6(F)CC6)c(Cl)cc6[nH]ncc56)nccc34)CC2(F)F)CCO1` [Ex-243]: the IC50 in assay [1] came out at 0.986 µM; in assay [2] it was 0.0873 µM; in assay [3], 0.333 µM; in assay [4] (2 hours compound incubation), 0.943 µM.

As to `Cc1c(Cl)cccc1-c1nccc2c1sc1nc(OC[C@@]34CCCN3C[C@H](F)C4)nc(N3CCOC[C@@](C)(O)C3)c12` [Ex-121, (S)-4-(8-(3-chloro-2-methylphenyl)-2-(((2R,7aS)-2-fluorotetrahydro-1H-pyrrolizin-7a(5H)-yl)methoxy)pyrido[4′,3′:4,5]thi-eno[2,3-d]pyrimidin-4-yl)-6-methyl-1,4-oxazepan-6-ol], the IC50 in assay [1] was found to be 1.03 µM; in assay [2] it was 0.369 µM; in assay [3], 0.278 µM; in assay [4] (KRAS-G12D, 2 hours) it was 3.43 µM.

In the case of `C[C@@]1(O)COCCN(c2nc(OC[C@]3(CN4CCC5(CC4)CC5)CC3(F)F)nc3sc4c(-c5c(C6(F)CC6)c(Cl)cc6[nH]ncc56)nccc4c23)C1` [Ex-233, (6S)-4-(2-(((R)-1-((6-azaspiro[2.5]octan-6-yl)methyl)-2,2-difluorocyclopropyl)methoxy)-8-(6-chloro-5-(1-fluorocyclopropyl)-1H-indazol-4-yl)pyrido[4′,3′:4,5]thieno[2,3-d]pyrimidin-4-yl)-6-methyl-1,4-oxazepan-6-ol], the IC50 in assay [1] was 0.153 µM; in assay [2], 0.0101 µM; in assay [3] it was 0.0259 µM; in assay [4] (2 hours compound incubation), 0.498 µM.

On to `C[C@@]1(O)COCCN(c2nc(OC[C@@]34CCCN3C[C@H](F)C4)nc3sc4c(-c5cccc(Cl)c5C5CC5)nccc4c23)C1` [Ex-122, (S)-4-(8-(3-chloro-2-cyclopropylphenyl)-2-(((2R,7aS)-2-fluorotetrahydro-1H-pyrrolizin-7a(5H)-yl)methoxy)pyri-do[4′,3′:4,5]thieno[2,3-d]pyrimidin-4-yl)-6-methyl-1,4-oxazepan-6-ol], for which the IC50 worked out at 0.908 µM in assay [1], 0.404 µM in assay [2] and 0.28 µM in assay [3].

As to `Cc1cc2[nH]ncc2c(-c2nccc3c2sc2nc(OC[C@@]45CCCN4C[C@H](F)C5)nc(N4CCOC[C@@](C)(O)C4)c23)c1C(C)(C)C#N` [Ex-154, 2-(4-(2-(((2R,7aS)-2-fluorotetrahydro-1H-pyrrolizin-7a(5H)-yl)methoxy)-4-((S)-6-hydroxy-6-methyl-1,4-oxazepan-4-yl)pyrido[4′,3′:4,5]thieno[2,3-d]pyrimidin-8-yl)-6-methyl-1H-indazol-5-yl)-2-methylpropanenitrile], the IC50 in assay [1] amounted to 0.277 µM; in assay [2], 0.104 µM; in assay [3], 0.103 µM.

Consider `C=C1CN2CC(=C)CC2(COc2nc(N3CCOC[C@@](C)(O)C3)c3c(n2)sc2c(-c4c(C5CC5)c(Cl)cc5[nH]ncc45)nccc23)C1` [Ex-225, (6S)-4-(8-(6-chloro-5-cyclopropyl-1H-indazol-4-yl)-2-((2,6-dimethylene-tetrahydro-1H-pyrrolizin-7a(5H)-yl)methoxy)pyrido [4′,3′:4,5]thieno[2,3-d]pyrimidin-4-yl)-6-methyl-1,4-oxaze-pan-6-ol], for which the IC50 in assay [1] was 0.0399 µM; in assay [2], 0.0127 µM; in assay [3], 0.0215 µM.

(Values after patent US20260176289A1, “SMALL MOLECULE INHIBITORS OF KRAS PROTEINS” (Merck Sharp & Dohme LLC, priority 2022, published 2026).)
